Data reported in PubChem BioAssay AID1963984 (Molecular Pharmacology Branch, DTP, NCI, 2024).

Tested on: 233499-124-R-J3-PDC spheroids with HUVEC/MSC, viability
Experiment: Anticancer human tumor 233499-124-R-J3-PDC patient-derived colon adenocarcinoma cell line growth inhibition [PI3K]
Settings: for IC50: curve of first compound; for viability, T/C: stronger effect = lower value
Excerpt: Combinatorial screen of targeted agents with the PI3K inhibitors inavolisib, alpelisib, duvelisib, and copanlisib in multi-cell type tumor spheroids
A high-throughput screen of multi-cell type tumor spheroids was designed to identify active combinations of targeted small molecules and PI3K pathway inhibitors. Complex spheroids include a stromal component modeled by human endothelial cells (HUVEC) and fibroblasts modeled by human mesenchymal stem cells (MSCs). The concentration ranges selected for each drug and investigational agent were based upon clinically achievable concentrations if the clinical Cmax of the agent was known.
Compounds. The drugs and investigational agents: inavolisib (NSC800729), alpelisib (NSC765974), duvelisib (NSC772469), copanlisib (NSC816437), ipatasertib (NSC767898), afuresertib (NSC778305), talazoparib (NSC767125), sapanisertib (NSC764658), selumetinib (NSC741078), tovorafenib (DAY101, NSC766906), vemurafenib (NSC761431), ravoxertinib (NSC781343), sotorasib (NSC818433), MRTX1133 (NSC 836407), abemaciclib (NSC 768073), palbociclib (NSC758247), venetoclax (NSC 766270), SY5609 (NSC837396), enzalutamide (NSC755605), and darolutamide (NSC825331), were obtained from the National Cancer Institute (NCI) Developmental Therapeutics Program Chemical Repository. The FDA-approved anticancer drug set is available from the NCI Developmental Therapeutics Program. […] The stock solutions were prepared in dimethyl sulfoxide (DMSO, Sigma-Aldrich, St. Louis, MO, cat. D2650) at 800-fold the tested concentration and stored at -70 degrees C prior to their use. All drugs and investigational agents were tested over a range starting from a high concentration at or near the clinical Cmax and decreasing in half-log increments. If the clinical Cmax for an agent had not been determined, the highest concentration tested was 10 microM.
Cell Culture. All cells were maintained in an incubator at 37 degrees C and 5% CO2 with 95% humidity. The PDC lines were cultured according to standard operating procedures established by the NCI PDMR (https://pdmr.cancer.gov/sops/default.htm). All PDCs were thawed and cultured in Matrigel-coated flasks prepared with a working solution of 1X Ham's F-12 nutrient mix, without supplementation (Invitrogen, Waltham, MA, cat. 11765054), 100 U/mL penicillin-streptomycin (Invitrogen, cat. 15140122), and 2.5% Matrigel (Corning Inc., Corning, NY, cat. 354248) for the first three passages. The 354836-022-R-J1-PDC, 475296-252-R-J1-PDC, and 997726-040-R-J2-PDC lines were cultured in 6A media, which includes advanced DMEM/F-12 (Thermo Fisher Scientific, cat. 12634028), 10 mM HEPES (Thermo Fisher Scientific, cat. 15630080), 1X GlutaMAX supplement (Thermo Fisher Scientific, cat. 35050061), 0.1 mg/mL primocin (InvivoGen, San Diego, CA, cat. ant-pm-2), 10% defined fetal bovine serum, heat inactivated (HyClone Laboratories Inc., Logan, UT, cat. SH30070.03HI), 50% L-WRN conditioned media (ATCC, cat. CRL-3276), 1.25 mM N-Acetyl-L-cysteine (Sigma-Aldrich, cat. A9165), 10 mM nicotinamide (Sigma-Aldrich, cat. N0636), 1X B-27 supplement (Thermo Fisher Scientific, cat. 17504044), 1X N-2 supplement (Thermo Fisher Scientific, cat. 17502048), and 10 microM Y-27632 dihydrochloride (Tocris Bioscience, Bristol, United Kingdom, cat. 1254). The 624824-186-R-J2-PDC line was cultured in 6C/Colon 1B media, which includes all 6A media components plus 50 ng/mL human EGF recombinant protein (Thermo Fisher Scientific, cat. PHG0311). […]

[1] = second compound 0.0316 µM, first compound 0.0316 µM
[2] = second compound 0.0316 µM, first compound 0.1 µM
[3] = second compound 0.0316 µM, first compound 0.316 µM
[4] = second compound 0.0316 µM, first compound 1 µM
[5] = second compound 0.0316 µM, first compound 3.16 µM
[6] = second compound 0.0316 µM, first compound 10 µM
[7] = second compound 0.1 µM, first compound 0.0316 µM
[8] = second compound 0.1 µM, first compound 0.1 µM
[9] = second compound 0.1 µM, first compound 0.316 µM
[10] = second compound 0.1 µM, first compound 1 µM
[11] = second compound 0.1 µM, first compound 3.16 µM
[12] = second compound 0.1 µM, first compound 10 µM
[13] = second compound 0.316 µM, first compound 0.0316 µM
[14] = second compound 0.316 µM, first compound 0.1 µM
[15] = second compound 0.316 µM, first compound 0.316 µM
[16] = second compound 0.316 µM, first compound 1 µM
[17] = second compound 0.316 µM, first compound 3.16 µM
[18] = second compound 0.316 µM, first compound 10 µM
[19] = second compound 1 µM, first compound 0.0316 µM
[20] = second compound 1 µM, first compound 0.1 µM
[21] = second compound 1 µM, first compound 0.316 µM
[22] = second compound 1 µM, first compound 1 µM
[23] = second compound 1 µM, first compound 3.16 µM
[24] = second compound 1 µM, first compound 10 µM
[25] = second compound 3.16 µM, first compound 0.0316 µM
[26] = second compound 3.16 µM, first compound 0.1 µM
[27] = second compound 3.16 µM, first compound 0.316 µM
[28] = second compound 3.16 µM, first compound 1 µM
[29] = second compound 3.16 µM, first compound 3.16 µM
[30] = second compound 3.16 µM, first compound 10 µM
[31] = second compound 10 µM, first compound 0.0316 µM
[32] = second compound 10 µM, first compound 0.1 µM
[33] = second compound 10 µM, first compound 0.316 µM
[34] = second compound 10 µM, first compound 1 µM
[35] = second compound 10 µM, first compound 3.16 µM
[36] = second compound 10 µM, first compound 10 µM
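Note: spheroids exposed to agents for seven days before readout.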
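Throughout, for viability, T/C: percent viability relative to DMSO vehicle control taken as 100%.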

SMILES: CC(Cn1ccc(-c2ccc(C#N)c(Cl)c2)n1)NC(=O)c1cc(C(C)O)[nH]n1 (stereo unspecified) + CC(Nc1ncnc2nc[nH]c12)c1cc2cccc(Cl)c2c(=O)n1-c1ccccc1
- IC50 (second compound 0.0316 µM): > 10 µM
- IC50 (second compound 0.1 µM): > 10 µM
- IC50 (second compound 0.316 µM): > 10 µM
- IC50 (second compound 1 µM): > 10 µM
- IC50 (second compound 3.16 µM): > 10 µM
- IC50 (second compound 10 µM): > 10 µM
- viability, T/C [1]: 100%
- viability, T/C [2]: 84.7%
- viability, T/C [3]: 93.2%
- viability, T/C [4]: 91.9%
- viability, T/C [5]: 109%
- viability, T/C [6]: 75%
- viability, T/C [7]: 98.2%
- viability, T/C [8]: 91.6%
- viability, T/C [9]: 81.5%
- viability, T/C [10]: 94.6%
- viability, T/C [11]: 68.8%
- viability, T/C [12]: 92.2%
- viability, T/C [13]: 87.3%
- viability, T/C [14]: 101%
- viability, T/C [15]: 73.3%
- viability, T/C [16]: 99.6%
- viability, T/C [17]: 100%
- viability, T/C [18]: 101%
- viability, T/C [19]: 96.2%
- viability, T/C [20]: 95.8%
- viability, T/C [21]: 81.4%
- viability, T/C [22]: 110%
- viability, T/C [23]: 92.9%
- viability, T/C [24]: 90.6%
- viability, T/C [25]: 91.6%
- viability, T/C [26]: 96.5%
- viability, T/C [27]: 78.1%
- viability, T/C [28]: 88.7%
- viability, T/C [29]: 78.3%
- viability, T/C [30]: 86.5%
- viability, T/C [31]: 86.1%
- viability, T/C [32]: 96.3%
- viability, T/C [33]: 83.2%
- viability, T/C [34]: 102%
- viability, T/C [35]: 75.5%
- viability, T/C [36]: 93.3%

SMILES: CC(C)NCC(C(=O)N1CCN(c2ncnc3c2C(C)CC3O)CC1)c1ccc(Cl)cc1 (stereo unspecified) + CC(Nc1ncnc2nc[nH]c12)c1cc2cccc(Cl)c2c(=O)n1-c1ccccc1
- IC50 (second compound 0.0316 µM): > 10 µM
- IC50 (second compound 0.1 µM): > 10 µM
- IC50 (second compound 0.316 µM): > 10 µM
- IC50 (second compound 1 µM): > 10 µM
- IC50 (second compound 3.16 µM): > 10 µM
- IC50 (second compound 10 µM): > 10 µM
- viability, T/C [1]: 86.1%
- viability, T/C [2]: 100%
- viability, T/C [3]: 94.8%
- viability, T/C [4]: 94.8%
- viability, T/C [5]: 77.1%
- viability, T/C [6]: 74.5%
- viability, T/C [7]: 93.3%
- viability, T/C [8]: 96.7%
- viability, T/C [9]: 77.6%
- viability, T/C [10]: 83.8%
- viability, T/C [11]: 110%
- viability, T/C [12]: 87.4%
- viability, T/C [13]: 95.7%
- viability, T/C [14]: 102%
- viability, T/C [15]: 95.8%
- viability, T/C [16]: 87.8%
- viability, T/C [17]: 86.9%
- viability, T/C [18]: 71.9%
- viability, T/C [19]: 91.1%
- viability, T/C [20]: 88.3%
- viability, T/C [21]: 88.1%
- viability, T/C [22]: 106%
- viability, T/C [23]: 82.1%
- viability, T/C [24]: 65.2%
- viability, T/C [25]: 91%
- viability, T/C [26]: 93.6%
- viability, T/C [27]: 96.9%
- viability, T/C [28]: 85.7%
- viability, T/C [29]: 81.1%
- viability, T/C [30]: 77.5%
- viability, T/C [31]: 78%
- viability, T/C [32]: 89.9%
- viability, T/C [33]: 87.4%
- viability, T/C [34]: 68.8%
- viability, T/C [35]: 99.5%
- viability, T/C [36]: 88%

SMILES: C#Cc1c(F)ccc2cc(O)cc(-c3ncc4c(N5CC6CCC(C5)N6)nc(OCC56CCCN5CC(F)C6)nc4c3F)c12 (stereo unspecified) + Cc1nc(NC(=O)N2CCCC2C(N)=O)sc1-c1ccnc(C(C)(C)C(F)(F)F)c1
- IC50 (second compound 0.0316 µM): > 10 µM
- IC50 (second compound 0.1 µM): > 10 µM
- IC50 (second compound 0.316 µM): > 10 µM
- IC50 (second compound 1 µM): 5.78 µM
- IC50 (second compound 3.16 µM): 0.807 µM
- IC50 (second compound 10 µM): < 0.0316 µM
- viability, T/C [1]: 91.5%
- viability, T/C [2]: 98.2%
- viability, T/C [3]: 79.3%
- viability, T/C [4]: 89.2%
- viability, T/C [5]: 81.2%
- viability, T/C [6]: 84.5%
- viability, T/C [7]: 108%
- viability, T/C [8]: 107%
- viability, T/C [9]: 91.4%
- viability, T/C [10]: 77.7%
- viability, T/C [11]: 81%
- viability, T/C [12]: 104%
- viability, T/C [13]: 88.7%
- viability, T/C [14]: 83%
- viability, T/C [15]: 83%
- viability, T/C [16]: 77.1%
- viability, T/C [17]: 50.9%
- viability, T/C [18]: 82.4%
- viability, T/C [19]: 77.1%
- viability, T/C [20]: 54.9%
- viability, T/C [21]: 83.4%
- viability, T/C [22]: 64.4%
- viability, T/C [23]: 64.3%
- viability, T/C [24]: 37.7%
- viability, T/C [25]: 65.3%
- viability, T/C [26]: 72%
- viability, T/C [27]: 67%
- viability, T/C [28]: 43.6%
- viability, T/C [29]: 33.6%
- viability, T/C [30]: 61.2%
- viability, T/C [31]: 30.5%
- viability, T/C [32]: 39%
- viability, T/C [33]: 16.3%
- viability, T/C [34]: 26.1%
- viability, T/C [35]: 12.4%
- viability, T/C [36]: 4.04%
